In patent publication US7390830B1, “Remedies or prophylactics for diseases in association with chemokines” (Teijin Limited, priority 1999, dated 2008):

The molecules below were run on THP-1 cells (assay: Inhibitory activity against cell chemotaxis caused by MCP-1). Details: Homo sapiens, MCP-1 20 ng/mL.
Assay type: cell-based
From the text: In order to determine the inhibitory activity of the compounds according to the present invention against the cell chemotaxis, human monocytic leukemia cell line THP-1 was used as chemotactic cells according to the method of Fall et al. (J. Immunol. Methods, 1980, 33, 239-247) to determine the cell chemotaxis caused by monocyte chemotactic factor MCP-1 as follows: Namely, 2×10^6 cells/mL of the THP-1 cells [suspended in RPMI-1640 (Flow Laboratories Co.) 10% FCS] were placed in the upper chamber (200 μL) of a 96-well microchemotaxis chamber (Neuroprobe®), and human recombinant MCP-1 (Peprotech Co.) diluted with the same solution so as to provide the final concentration of 20 ng/mL was placed in the lower chamber (35 μL). A polycarbonate filter (PVP-free, Neuroprobe®) was placed between the two chambers. These were incubated in the presence of 5% of CO2 at 37° C. for 2 hours.
The filter was removed, and the cells which had migrated to the undersurface of the filter were immobilized, stained using Diff Quick (Kokusai Shiyaku Co.) and then measured at a measuring wavelength of 550 nm using a plate reader (Molecular Device Co.) to determine the means of 3 wells. Thereby, the indication of the number of cells migrated was obtained. The test compound together with the THP-1 cells was added to the upper chamber at various concentrations to determine the inhibitory activity against cell chemotaxis [degree of inhibition: IC50 (μM)].

IC50, ≤ 100 nM:
Nc1cc(CN2CCC(CNC(=O)CNC(=O)c3cc(F)c(F)cc3N)CC2)ccc1O [Compd. No. 2141, 4-[[N-(2-amino-4,5-difluorobenzoyl)glycyl]aminomethyl]-1-(3-amino-4-hydroxybenzyl)piperidine]
Nc1cc(Cl)ccc1CN1CCC(CNC(=O)CNC(=O)c2cc(C(F)(F)F)ccc2N)CC1 [Compd. No. 1919, 4-[[N-(2-amino-5-trifluoromethylbenzoyl)glycyl]aminomethyl]-1-(2-amino-4-chlorobenzyl)piperidine]
Cc1noc(C)c1CN1CC[C@@H](NC(=O)CNC(=O)c2cc(F)cc(C(F)(F)F)c2)C1 [Compd. No. 1191, (R)-3-[N-[3-fluoro-5-(trifluoromethyl)benzoyl]glycyl]amino-1-(3,5-dimethylisoxazol-4-ylmethyl)-pyrrolidine]
C=Cc1ccc(CN2CC[C@@H](NC(=O)CNC(=O)c3cc(C(F)(F)F)ccc3N)C2)cc1 [Compd. No. 1701, (R)-3-[[N-(2-amino-5-(trifluoromethyl)benzoyl)glycyl]amino]-1-(4-vinylbenzyl)pyrrolidine]
CNc1cc(CN2CC[C@@H](NC(=O)CNC(=O)c3cc(C(F)(F)F)ccc3N)C2)ccc1O [Compd. No. 2158, (R)-3-[[N-(2-amino-5-trifluoromethylbenzoyl)glycyl]amino]-1-(3-methylamino-4-hydroxybenzyl)pyrrolidine]
Nc1cc(CN2CC[C@@H](NC(=O)CNC(=O)c3cc(C(F)(F)F)ccc3N)C2)ccc1Cl [Compd. No. 2132, (R)-1-(3-amino-4-chlorobenzyl)-3-[[N-(2-amino-5-trifluoromethylbenzoyl)glycyl]amino]pyrrolidine]
Nc1ccc(Br)cc1C(=O)NCC(=O)NCC1CCN(Cc2ccc(Cl)cc2)CC1 [Compd. No. 1042, 4-[N-(2-amino-5-bromobenzoyl)glycyl]aminomethyl-1-(4-chlorobenzyl)piperidine]
Cc1ccc(CN2CCC(CNC(=O)CNC(=O)c3cc(F)c(F)cc3N)CC2)cc1N [Compd. No. 2114, 4-[[N-(2-amino-4,5-difluorobenzoyl)glycyl]aminomethyl]-1-(3-amino-4-methylbenzyl)piperidine]
COc1ccc(CN2CC[C@@H](NC(=O)CNC(=O)c3cc(OC(F)(F)F)ccc3N)C2)cc1O [Compd. No. 1896, (R)-3-[[N-(2-amino-5-trifluoromethoxybenzoyl)glycyl]amino]-1-(3-hydroxy-4-methoxybenzyl)pyrrolidine]
Nc1cc(Cl)ccc1CN1CC[C@@H](NC(=O)CNC(=O)c2cc(OC(F)(F)F)ccc2N)C1 [Compd. No. 1921, (R)-3-[[N-(2-amino-5-trifluoromethoxybenzoyl)glycyl]amino]-1-(2-amino-4-chlorobenzyl)pyrrolidine]
O=C(CNC(=O)c1cccc(C(F)(F)F)c1)NCC1CCN(Cc2ccc(Cl)cc2)CC1 [Compd. No. 461, 1-(4-chlorobenzyl)-4-[[N-[3-(trifluoromethyl)benzoyl]glycyl]aminomethyl]piperidine]
